Results on two compounds are retold here after article PMC8322037 (International Journal of Biological Macromolecules, 2021).

This test has as its target SARS-CoV-2 3CL^pro (Severe acute respiratory syndrome coronavirus 2, UniProt P0DTD1). Put plainly: biochemical. Conditions: for Ratio (IC50 0.5 min / IC50 60 min): IC50 shift between 0.5 min and 60 min preincubation.

Some results are limits rather than exact numbers.

Regarding Myricitrin, the “Ratio (IC50 0.5 min / IC50 60 min)” value came to 8.32.
Consider `O=C1c2c(O)cc(O)cc2OC(c2ccc(O)c(O)c2)C1O` (centres unmarked) [Taxifolin], for which the “Ratio (IC50 0.5 min / IC50 60 min)” value is on record as greater than 2.75. This compound showed an IC50 (IC50 0.5 (min)) greater than 200 µM. Where the note is “IC50 60 (min)”, this compound yielded an IC50 of 72.7 µM. The same compound returned an IC50 (IC50 (three different doses), assayed by using three different doses, Fig. 4) of 10 to 100 µM.
